# Measurements taken from US10131652B2, “Pyrimidinyloxy benzene derivatives as herbicides” (E. I. DU PONT DE NEMOURS AND COMPANY, priority 2014, dated 2018).
# Like-named read-outs stand apart in the source and are kept apart here.
# Columns and labels:
# Assay type in all cases: in vivo
# [1] = test system: waterhemp_RES2 (ALS & HPPD resistant common waterhemp, Amaranthus rudis); experiment: Test F postemergence plant response; details: scale 0 to 100
# Procedure, shortened: (§1)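 Postemergence application to plants 2–18 cm tall (1- to 4-leaf stage), then held in greenhouse 14–21 days. Visual rating against untreated controls on a 0–100 scale (0 no effect, 100 complete control).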
# [2] = test system: waterhemp_RES1 (ALS & Triazine resistant common waterhemp, Amaranthus rudis); experiment: Test F postemergence plant response; details: scale 0 to 100
# Procedure, shortened: as §1
# [3] = test system: barnyardgrass (Echinochloa crus-galli); experiment: Test F pre-/postemergence plant response; details: Echinochloa crus-galli, scale 0 to 100, read-out: Plant response rating, Barnyardgrass
# Procedure, shortened: (§2)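 Two application timings were run side by side: soil surface treatment of freshly planted seed in silt loam, and foliar treatment of seedlings 2 to 18 cm high. Plants stayed in the greenhouse 14 to 21 days before visual 0–100 injury scoring against controls.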
# [4] = test system: surinam grass (Brachiaria decumbens); experiment: Test F pre-/postemergence plant response; details: Urochloa decumbens, pre-emergence, scale 0 to 100, read-out: Plant response rating, Surinam Grass
# Procedure, shortened: as §2
# [5] = test system: large (Lg) crabgrass (Digitaria sanguinalis); experiment: Test F pre-/postemergence plant response; details: Digitaria sanguinalis, pre-emergence, scale 0 to 100, read-out: Plant response rating, Crabgrass, Large
# Procedure, shortened: as §2
# [6] = test system: Italian ryegrass (Lolium multiflorum); experiment: Test F pre-/postemergence plant response; details: Lolium multiflorum, scale 0 to 100, read-out: Plant response rating, Ryegrass, Italian; for pest or weed control at 31 g/ha: 31 g ai/ha
# Procedure, shortened: as §2
# soybean (Glycine max) = experiment: Test F pre-/postemergence plant response; details: Glycine max, scale 0 to 100, read-out: Plant response rating, Soybean
# Procedure, shortened: as §2
# [7] = test system: giant foxtail (Setaria faberii); experiment: Test F pre-/postemergence plant response; details: Setaria faberi, pre-emergence, scale 0 to 100, read-out: Plant response rating, Foxtail, Giant
# Procedure, shortened: as §2
# [8] = test system: morningglory (Ipomoea coccinea); experiment: Test F pre-/postemergence plant response; details: Ipomoea, pre-emergence, scale 0 to 100, read-out: Plant response rating, Morningglory
# Procedure, shortened: as §2
# [9] = test system: lambsquarters (Chenopodium album); experiment: Test F pre-/postemergence plant response; details: Chenopodium album, pre-emergence, Preemergence, scale 0 to 100, read-out: Plant response rating, Lambsquarters
# Procedure, shortened: as §2
# [10] = test system: dayflower (Virginia (VA) dayflower, Commelina virginica); experiment: Test F pre-/postemergence plant response; details: Commelina virginica, scale 0 to 100, read-out: Plant response rating, Dayflower, VA
# Procedure, shortened: as §2
# [11] = test system: sandbur (southern sandbur, Cenchrus echinatus); experiment: Test F pre-/postemergence plant response; details: Cenchrus echinatus, scale 0 to 100, read-out: Plant response rating, Sandbur
# Procedure, shortened: as §2
# [12] = test system: Brazilian crabgrass (Digitaria horizontalis); experiment: Test F pre-/postemergence plant response; details: Digitaria horizontalis, scale 0 to 100, read-out: Plant response rating, Crabgrass, Brazil
# Procedure, shortened: as §2
# [13] = post-emergence, 31 g ai/ha Postemergence
# [14] = post-emergence, 62 g ai/ha Postemergence
# [15] = pre-emergence, 31 g ai/ha Preemergence
# [16] = pre-emergence, 62 g ai/ha Preemergence
compound,measurement,setting,value
"Fc1cccc(Oc2ncc(Cl)cn2)c1-c1cc(C(F)F)on1 [Compound 55, 5-chloro-2-[2-[5-(difluoromethyl)-3-isoxazolyl]-3-fluorophenoxy]pyrimidine]","Plant response rating, Waterhemp_RES2",[1]; 31 g ai/ha Postemergence,100
same,"Plant response rating, Waterhemp_RES2",[1]; 62 g ai/ha Postemergence,100
same,"Plant response rating, Waterhemp_RES1",[2]; 31 g ai/ha Postemergence,100
same,"Plant response rating, Waterhemp_RES1",[2]; 62 g ai/ha Postemergence,100
same,pest or weed control at 31 g/ha,[3]; [13],50%
same,pest or weed control at 62 g/ha,[3]; [14],35%
same,pest or weed control at 31 g/ha,[3]; [15],10%
same,pest or weed control at 62 g/ha,[3]; [16],85%
same,pest or weed control at 31 g/ha,[4]; 31 g ai/ha Preemergence,0%
same,pest or weed control at 62 g/ha,[4]; Preemergence,10%
same,pest or weed control at 31 g/ha,[5]; 31 g ai/ha Preemergence,98%
same,pest or weed control at 62 g/ha,[5]; 62 g ai/ha Preemergence,100%
same,pest or weed control at 31 g/ha,"[6]; post-emergence, Postemergence",0%
same,pest or weed control at 62 g/ha,"[6]; post-emergence, 62 g ai/ha, Postemergence",10%
same,pest or weed control at 31 g/ha,"[6]; pre-emergence, Preemergence",0%
same,pest or weed control at 62 g/ha,"[6]; pre-emergence, Preemergence",30%
same,plant injury at 31 g/ha,soybean (Glycine max); [13],70%
same,plant injury at 62 g/ha,soybean (Glycine max); [14],95%
same,plant injury at 31 g/ha,soybean (Glycine max); [15],40%
same,plant injury at 62 g/ha,"soybean (Glycine max); pre-emergence, Preemergence",50%
same,pest or weed control at 31 g/ha,[7]; 31 g ai/ha Preemergence,90%
same,pest or weed control at 62 g/ha,[7]; 62 g ai/ha Preemergence,98%
same,pest or weed control at 31 g/ha,[8]; 31 g ai/ha Preemergence,30%
same,pest or weed control at 62 g/ha,[8]; Preemergence,98%
same,pest or weed control at 31 g/ha,[9]; 31 g ai/ha,100%
same,pest or weed control at 62 g/ha,[9],100%
same,pest or weed control at 31 g/ha,[10]; [13],70%
same,pest or weed control at 31 g/ha,[10]; [15],60%
same,pest or weed control at 62 g/ha,[10]; [16],40%
same,pest or weed control at 31 g/ha,[11]; [13],25%
same,pest or weed control at 62 g/ha,[11]; [14],15%
same,pest or weed control at 31 g/ha,[11]; [15],0%
same,pest or weed control at 62 g/ha,"[11]; pre-emergence, Preemergence",0%
same,pest or weed control at 31 g/ha,[12]; [13],40%
same,pest or weed control at 62 g/ha,[12]; [14],30%
same,pest or weed control at 31 g/ha,[12]; [15],75%
same,pest or weed control at 62 g/ha,[12]; [16],100%
